Data set [1] relates to rat adjuvant model of arthritis. Briefly: Analgesic relief in rat adjuvant model of arthritis. It counts as in vivo.
In data set [2] the target is adenosine A2A receptor (Homo sapiens, UniProt P29274). The data set can be described thus: EC50 at the adenosine A2A receptor. The class given is biochemical. The text has this:
For the avoidance of doubt, the EC50 value of a compound is defined herein as the concentration of the compound that provokes a receptor response halfway between the baseline receptor response and the maximum receptor response (as determined, for example, using a dose-response curve).
The EC50 value should be determined under standard conditions (balanced salt solutions buffered to pH 7.4). For EC50 determinations using isolated membranes, cells and tissues this would be in buffered salt solution at pH 7.4 (e.g. cell culture medium), for example as in Daly et al., Pharmacol. (1993) 46, 91-100), or preferably as in Tilburg et al (J. Med. Chem. (2002) 45, 91-100). The EC50 could also be determined in vivo by measuring adenosine receptor mediated responses in a normal healthy animal, or even in a tissue perfused under normal conditions (i.e. oxygenated blood, or oxygenated isotonic media, also buffered at pH 7.4) in a normal healthy animal.

The nature of data set [3]: Plasma concentrations after single oral dosing in human volunteers. The class given is in vivo.
Data set [4] is described as follows: Tachycardia by 12 lead ECGs in human volunteers. The class given is in vivo. On the procedure:
Tachycardia was determined using 12 lead ECGs.

Data set [5] in a line: Minimum effective analgesic plasma concentration in the rat. The class given is in vivo.
The subject of data set [6] is carageenan-induced inflammation. As to conditions: rats, 20 mg/kg po; cited from earlier work.
The conditions of data set [7]: 20 mg/kg po; cited from earlier work.
The subject of data set [8] is U937 human macrophage cells. Particulars: cited from earlier work.
The target in data set [9] is T1, rat adenosine A2a receptors (Rattus norvegicus, UniProt P30543).
T1 construct: from tissue; host or cells: rat striatum (membranes)
T1 sequence (P30543 whole entry): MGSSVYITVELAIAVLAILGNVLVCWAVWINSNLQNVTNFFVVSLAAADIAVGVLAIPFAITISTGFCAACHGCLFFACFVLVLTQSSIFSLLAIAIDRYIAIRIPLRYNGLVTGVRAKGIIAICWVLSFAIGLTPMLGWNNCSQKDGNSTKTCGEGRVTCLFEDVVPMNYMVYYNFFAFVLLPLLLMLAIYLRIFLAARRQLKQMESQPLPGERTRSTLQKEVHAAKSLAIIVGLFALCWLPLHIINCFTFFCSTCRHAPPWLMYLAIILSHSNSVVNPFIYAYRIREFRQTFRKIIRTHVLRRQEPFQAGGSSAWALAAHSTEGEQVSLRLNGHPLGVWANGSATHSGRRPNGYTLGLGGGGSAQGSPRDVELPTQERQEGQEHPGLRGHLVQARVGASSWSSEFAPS
Briefly: Binding at rat A2a receptors, rat striatal membranes, [3H]-CGS21680. As to the method:
Chemical structures of compounds of the invention are given in the Examples below. Binding experiments were carried out using rat A2a receptors. Ki values were determined for each compound at pH 5.5 and pH 7.4.

The mark [10] stands for this setting: pH 5.5, read-out: (Ki) nM (pH 5.5).
Setting [11] is: pH 7.4, read-out: (Ki) nM (pH 7.4).

This is an account of results in US7807685B2, “Therapeutic compounds” (CBT Development Limited, priority 2006, dated 2010).

SMILES strings stand for the structures. Read-outs that look alike come from different tables or passages of the source.

One may read the EC50 as the concentration at which the effect is half-maximal. Read a high EC50 as a need for much substance. What is called Ki is a dissociation constant, usually derived from enzyme kinetics or from competition with a known ligand.

adenosine A2A receptor, sequence (P29274 whole entry): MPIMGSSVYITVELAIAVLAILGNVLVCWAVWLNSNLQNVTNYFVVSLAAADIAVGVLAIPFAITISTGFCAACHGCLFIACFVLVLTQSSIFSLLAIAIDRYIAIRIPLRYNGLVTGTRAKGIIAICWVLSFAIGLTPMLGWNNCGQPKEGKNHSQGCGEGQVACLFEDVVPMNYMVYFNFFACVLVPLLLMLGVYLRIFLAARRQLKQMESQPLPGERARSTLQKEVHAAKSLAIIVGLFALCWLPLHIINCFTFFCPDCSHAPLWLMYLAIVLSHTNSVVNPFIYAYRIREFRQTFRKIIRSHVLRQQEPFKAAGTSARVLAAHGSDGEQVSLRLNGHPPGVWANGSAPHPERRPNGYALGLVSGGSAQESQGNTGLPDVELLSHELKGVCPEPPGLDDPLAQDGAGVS

With `COc1nc(N)c2ncn([C@@H]3O[C@H](CO)[C@@H](O)[C@H]3O)c2n1` [spongosine, 2-methoxyadenosine], the “minimum plasma concentration giving maximal analgesic relief” value in data set [1] came out at 0.06 µM. In data set [2], this compound showed an EC50 of around 1 µM. In data set [3] (human, 0.8 mg oral), the “time with plasma concentrations greater than […]” value is “approximately 1.5 h”. Moreover, the “minimum effective dose in the human” value in [3] (suggested from rat minimum effective plasma concentration) is reported as “approximately 0.8 mg”. Also, the Tachycardia side effect entry was “No” in [4] (single oral dose 0.2 mg); “No” in data set [4] (single oral dose 0.8 mg); “No” in data set [4] (single oral dose 3.5 mg); “No” in data set [4] (single oral dose 10.5 mg); “No” in [4] (single oral dose 21 mg); “Yes” in data set [4] (single oral dose 28 mg). In addition, in data set [5], the “minimum effective analgesic plasma concentration” value turned out to be 0.025 µM. In data set [6], the “inhibition of carageenan-induced inflammation” value is given as 25%. In [7], the “reduction in heart rate” value is given as 25%. Besides, the “reduction in mean blood pressure” value in data set [7] is 41%. Besides, the “phorbol ester induced TNF alpha release” value in [8] was “reduce phorbol ester induced TNF alpha release”.
On to `CCCCNc1nc(N)c2ncn([C@@H]3O[C@H](CO)[C@@H](O)[C@H]3O)c2n1` [NHCH2CH2CH2CH3], for which the Ki in data set [9] (setting [10]) was determined as 47 nM; in [9] (setting [11]), 17 nM.
Consider `CCCNc1nc(N)c2ncn([C@@H]3O[C@H](CO)[C@@H](O)[C@H]3O)c2n1` [NHCH2CH2CH3], for which the Ki in data set [9] (setting [10]) and in data set [9] (setting [11]) was 1900 nM each time.
